Measured values taken from patent US20240299393A1, “SMALL MOLECULE DISRUPTORS OF PROTEIN INTERACTIONS IN HISTONE DEACETYLASE COMPLEXES” (Dana-Farber Cancer Institute, Inc., priority 2021, published 2024).
“Also recorded” adds a separate entry of the source.

Columns and labels:
Sin3 occupancy = biological target: T1, Sin3 occupancy (Saccharomyces cerevisiae, UniProt P22579); experiment: ChIP-qPCR and ChIP-seq of Sin3-(HA)3 in yeast; assay type: cell-based, S. cerevisiae; conditions: for Sin3 occupancy at URS-URA3 and INO1 (ChIP-qPCR) / number of genes with decreased Sin3 occupancy (ChIP-seq): 400 μM; for Sin3 occupancy at URS-URA3 and INO1 (ChIP-qPCR): 2 h; for number of genes with decreased Sin3 occupancy (ChIP-seq) / number of genes with reduced Sin3 occupancy (ChIP-seq): of 545 Sin3-occupied genes; for number of genes with decreased Sin3 occupancy (ChIP-seq): FIG. 5D; for number of genes with reduced Sin3 occupancy (ChIP-seq): FIG. 5K
T1 construct: expressed in transfected cells; host or cells: S. cerevisiae JOY116 (sin3Δ) transformed with YEplac181-Sin3-(HA)3
Experimental: ChIP procedures in yeast were adapted from previously established protocols, with minor modifications [Sertil et al 2007, Jezek et al 2017, Barski et al 2007]. Briefly, yeast S. cerevisiae JOY116 (sin3Δ) cells transformed with the YEplac181-Sin3-(HA)3 plasmid were cultured in liquid SC-L, until OD600 nm reached ˜0.7. […] (200 rpm). After 2 h of incubation, cells were treated with 1% formaldehyde for 20 min at 4° C. for cross-linking. Then, 125 mM glycine was applied for 5 min at room temperature to quench cross-linking. Yeast cells were centrifuged (10 min at 1,000 g), and the resulting pellets were washed twice with 50 mL ice-cold phosphate-buffered saline (PBS). Yeast pellets were resuspended in 500 μL of ChIP lysis buffer (50 mM HEPES-KOH pH 7.5, 140 mM NaCl, 1 mM EDTA, 1% Triton X-100, 0.1% sodium deoxycholate, 0.1% SDS, and yeast protease inhibitors). After that, 500 μL of the yeast suspensions in lysis buffer were mixed with 500 μL of zirconia beads in a screw-top microcentrifuge tube. For cell lysis, the tubes were vortexed at maximum speed for 15 min at 4° C. Cell lysates were collected by punching a hole on the bottom of the screw-cap tube, with a sterile needle, and centrifuging the lysates into new Eppendorf tubes. Then, 300 μL of lysates were added into 1.5 mL Bioruptor Pico microtubes with caps (Diagenode, cat #C30010016), and subsequent sonication was conducted with a Bioruptor Pico sonication device, in the following conditions: 30 s/3 cycles on, and 30 s/3 cycles off, at 4° C. The sonicated lysates were cleared by 30 min centrifugation at maximum speed at 4° C. The resulting cleared lysates, with sheared chromatin, were saved, snap freezed, and stored at −80° C. until use. Next, 10 μL cleared lysates were reverse-cross linked overnight, at 65° C., in the presence of proteinase K. Phenol-chloroform extractions and EtOH precipitations were then applied to purify the sheared DNA. DNA agarose gel running and DNA concentration measurements with a NanoDrop spectrophotometer were finally conducted to assess the size and yield of the sheared DNA, respectively.
For the pull-downs, 25 μg of sheared chromatin from each sample were diluted (1:10) in ice-cold dilution buffer (1% Triton X-100, 2 mM EDTA, 20 mM Tris-HCl pH 8, 150 mM NaCl, and yeast protease inhibitors), and mixed with 10 μg ChIP-grade anti-HA (Abcam, cat #ab9110), or isotype control anti-IgG (Abcam, cat #ab171870) antibodies. Then, 50 μL of pre-washed Dynabeads Protein G for Immunoprecipitation (ThermoFisher, cat #10003D) were added to each individual sample. Chromatin immunoprecipitation was performed by incubating samples at 4° C. overnight, under gentle shaking (300 rpm). The day after, the Dynabeads were washed three times with 1 mL ice-cold wash buffer (0.1% SDS, 1% Triton X-100, 2 mM EDTA, 20 mM Tris-HCl pH 8, 150 mM NaCl), and then once with 1 mL ice-cold final wash buffer (0.1% SDS, 1% Triton X-100, 2 mM EDTA pH 8, 20 mM Tris-HCl pH 8, 500 mM NaCl), using a magnetic rack. DNA was eluted with 120 μL elution buffer (1% SDS, 100 mM NaHCO3), by incubating samples at 30° C. for 15 min. For input, 10 μL of sheared cell lysates were added to 110 μL of elution buffer. Then, 4 μL proteinase K were added to the eluted DNA or inputs, and reverse-cross linking was achieved by incubating samples overnight at 65° C. After overnight incubation, phenol-chloroform extractions and EtOH precipitations were conducted to purify ChIP-DNA. The ChIP-DNA was eluted in a total volume of 200 μL ddH2O, and then used for ChIP-qPCR or ChIP-Seq. Briefly, for ChIP-qPCR, 4 μL of eluted ChIP-DNA were mixed with 5 μL of PowerUp SYBR Green master mix (Applied Biosystems, cat #A25743), and 1 μL of the primer mix (forward+reverse; 3 μM final concentration), for a total volume of 10 μL. Two technical replicates were generated for each DNA sample from three ChIP replicates. ChIP-DNA samples were then transferred into the 384-well skirted PCR plate (Applied Biosystems, cat #4343370). […]

[1] = system: SK-N-BE(2)-C neuroblastoma cells; experiment: Matrigel cell invasion assay; assay type: cell-based, human; conditions: FIG. 39A
Experimental: SK-N-BE(2)C neuroblastoma cells were seeded at 5×10^4 cells per well density in a 24-well plate. Cells were treated for five days with compounds or with DMSO control in Dulbecco's Modified Eagle Medium containing 10% fetal bovine serum, penicillin and streptomycin, in quadruplicate. On Day five, cells were changed to serum-free medium with the same compound concentrations as during the 5-day treatment, and 50,000 cells were seeded on top of a Corning BioCoat Matrigel Invasion Chamber (cat #354480). Medium with 20% FBS was added as chemoattractant to the bottom of the well. Invasion assay was performed per manufacturer instructions. After 48 h, non-invading cells were removed by scrubbing with a cotton tip swab. Cells that remained inside the matrix were stained with 1% crystal violet dye and counted by eye. Percentage of invasive cells was calculated relative to DMSO control.

T1 sequence (P22579 whole entry): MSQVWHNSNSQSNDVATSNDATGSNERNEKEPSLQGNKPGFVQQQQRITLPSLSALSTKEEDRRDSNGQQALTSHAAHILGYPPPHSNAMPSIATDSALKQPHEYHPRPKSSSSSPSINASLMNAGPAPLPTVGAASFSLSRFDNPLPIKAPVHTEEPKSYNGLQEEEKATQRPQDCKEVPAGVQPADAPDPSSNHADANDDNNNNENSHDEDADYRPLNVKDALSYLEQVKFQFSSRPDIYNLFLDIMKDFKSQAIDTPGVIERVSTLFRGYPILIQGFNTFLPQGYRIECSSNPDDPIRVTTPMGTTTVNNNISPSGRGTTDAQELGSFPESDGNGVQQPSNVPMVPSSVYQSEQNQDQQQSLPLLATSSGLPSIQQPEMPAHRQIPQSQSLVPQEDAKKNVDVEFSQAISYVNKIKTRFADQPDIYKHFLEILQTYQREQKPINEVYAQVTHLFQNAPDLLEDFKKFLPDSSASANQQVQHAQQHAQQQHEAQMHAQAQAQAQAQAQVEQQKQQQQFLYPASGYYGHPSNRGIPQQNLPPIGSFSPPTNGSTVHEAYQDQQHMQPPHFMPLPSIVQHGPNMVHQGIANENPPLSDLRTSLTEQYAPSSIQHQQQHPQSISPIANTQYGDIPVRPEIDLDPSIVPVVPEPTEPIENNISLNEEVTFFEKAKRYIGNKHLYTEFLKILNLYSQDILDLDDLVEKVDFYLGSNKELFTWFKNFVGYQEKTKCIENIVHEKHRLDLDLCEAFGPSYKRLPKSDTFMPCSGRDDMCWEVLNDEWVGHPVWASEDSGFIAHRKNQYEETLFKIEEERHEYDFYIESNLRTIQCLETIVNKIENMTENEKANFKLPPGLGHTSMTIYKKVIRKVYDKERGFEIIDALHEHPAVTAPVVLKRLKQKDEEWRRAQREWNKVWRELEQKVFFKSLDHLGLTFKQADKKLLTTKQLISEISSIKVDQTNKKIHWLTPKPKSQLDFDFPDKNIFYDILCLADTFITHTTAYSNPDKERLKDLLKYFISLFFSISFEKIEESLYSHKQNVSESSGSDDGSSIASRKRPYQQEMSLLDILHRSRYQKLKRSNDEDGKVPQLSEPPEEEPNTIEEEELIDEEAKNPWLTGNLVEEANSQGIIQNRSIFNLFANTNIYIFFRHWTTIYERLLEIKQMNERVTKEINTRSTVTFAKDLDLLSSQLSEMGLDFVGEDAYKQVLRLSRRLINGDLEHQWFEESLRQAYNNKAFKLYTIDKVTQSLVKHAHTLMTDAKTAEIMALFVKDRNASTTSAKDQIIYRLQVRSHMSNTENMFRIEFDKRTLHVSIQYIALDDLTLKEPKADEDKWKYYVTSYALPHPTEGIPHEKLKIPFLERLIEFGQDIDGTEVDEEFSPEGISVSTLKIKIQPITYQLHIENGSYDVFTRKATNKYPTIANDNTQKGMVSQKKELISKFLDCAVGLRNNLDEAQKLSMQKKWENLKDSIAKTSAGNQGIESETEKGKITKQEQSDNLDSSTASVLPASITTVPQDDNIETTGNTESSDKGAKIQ

## CC(NC(=O)c1c(O)n2ccccc2nc1=O)c1ccccc1 (racemic) [E6]
Sin3 occupancy
  Sin3 occupancy at URS-URA3 and INO1 (ChIP-qPCR): significantly decreased; also recorded: decreased occupancy
  number of genes with decreased Sin3 occupancy (ChIP-seq): 360 genes
  number of genes with reduced Sin3 occupancy (ChIP-seq): 450 genes
Sin3 occupancy; not at SPO3 or TRK2
  Sin3 occupancy at INO1, IME2 and CAR1 (ChIP-Seq traces): reduced

## C[C@@H](NC(=O)c1c(O)n2ccccc2nc1=O)c1ccccc1 [E6R, 4-hydroxy-2-oxo-N—((R)-1-phenylethyl)-3,4-dihydro-2H-pyrido[, 2-a]pyrimidine-3-carboxamide]
[1]
  migration of neuroblastoma cells in the invasion assay: significantly reduce

## CC(/C=C/C(=O)NO)=C\[C@@H](C)C(=O)c1ccc(N(C)C)cc1 [TSA, trichostatin A]
Sin3 occupancy
  Sin3 occupancy at URS-URA3 and INO1 (ChIP-qPCR): appeared to prevent recruitment of Sin3; also recorded: decreased occupancy
  number of genes with decreased Sin3 occupancy (ChIP-seq): 142 genes
  number of genes with reduced Sin3 occupancy (ChIP-seq): 295 genes
[1]
  migration of neuroblastoma cells in the invasion assay: significantly reduce
